This assay deals with Parkinson's patients. The experiment in a line: Patient studies of butyric acid/butyrate given with physician-directed medication. The assay is classed as in vivo, human. How it is done: The effect of butyric acid/butyrate was investigated in patient studies in which more than 1,000 test subjects have participated for at least one year each. A total amount of 6 g butyric acid or butyrate (as salt) was administered together with the physician-directed medication (levodopa etc.) in three daily doses with meals in the morning, at noon and in the evening.
This is especially important because the usual medication for Parkinson's patients, not only with levodopa, can lead to considerable side effects such as dizziness, nausea, tachyarrhythmia, psychosis, dyskinesia and circulatory problems.

Regarding `CCCC(=O)O` [butyric acid/butyrate, butyric acid], the “general condition, in particular with respect to the motor functions” value (more than 1,000 test subjects, at least one year each, total 6 g butyric acid or butyrate (as salt) in three daily doses with meals, together with levodopa etc.) was “Significant improvements”. Besides, the “reduction of the amount of dopamine used by Parkinson's patients” value (patients treated with butyric acid/butyrate) is “at least 50%”. In addition, under “patients treated with butyric acid/butyrate, in some cases”, the “reduction of the amount of dopamine used by Parkinson's patients, in some cases” value is listed as “up to 90%”.

The record behind these values is US20220313634A1, “AGENT FOR THE PROPHYLACTIC AND/OR SUPPORTIVE THERAPEUTIC TREATMENT OF PARKINSON'S DISEASE” (priority 2017, published 2022).
